# Values of other authors, collected in paper PMC9762682, “Tocotrienols: Exciting Biological and Pharmacological Properties of Tocotrienols and Naturally Occurring Compounds, Part II” (Annals of clinical case reports, 2022).
# Key:
# [1] = system: gene expression of TNF-α, IL-2, IL-4, IL-6, IL-8, IL-10; design: method as in earlier work; conditions: 250 mg/d + AHA Step-1 diet; baseline = 100
# Hela cells = system: Hela cells; design: method as in PMID 29606130; value at effective dose: unit not given here;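 as to IC50: anti-proliferation of cancer cells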
# Breast cancer cells = system: Breast cancer cells; design: method as in PMID 29606130; value at effective dose: unit not given here;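 as to IC50: anti-proliferation of cancer cells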
# TNF-α = conditions: LPS-induced macrophages of PPAR-α knockout female mice
# B-Lymphocyte cells = system: B-Lymphocyte cells; design: method as in PMID 29606130; value at effective dose: unit not given here;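 as to IC50: anti-proliferation of cancer cells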
# plasma miRNAs = system: plasma miRNAs; design: method as in earlier work
# [2] = 250 mg/d + AHA Step-1 diet, baseline = 100
smiles,measurement,setting,value
CC(C)=CCC/C(C)=C/CC/C(C)=C/CC[C@]1(C)CCc2cc(O)cc(C)c2O1 [δ-Tocotrienol],Gene Expression IL-2,[1],91.5 ± 3.54
same,Gene Expression IL-4,[1],77.5 ± 2.12
same,Gene Expression IL-6,[1],73.5 ± 0.71
same,Gene Expression IL-8,[1],92.0 ± 2.83
same,Gene Expression IL-10,[1],89.0 ± 1.41
same,Gene Expression TNF-α,[1],"84.5 ± 0.71^a, ^**"
same,IC50,Hela cells,5 µM
same,percentage of control at IC50 dose,Hela cells,45%
same,effective dose,Hela cells; 48 h,20 µM
same,percentage of control at effective dose,Hela cells; 48 h,18%
same,value at effective dose,Hela cells; 48 h,8.3 ± 2.1
same,IC50,Breast cancer cells,10 µM
same,effective dose,Breast cancer cells,20 µM
same,percentage of control at IC50 dose,Breast cancer cells,49%
same,percentage of control at effective dose,Breast cancer cells,56%
same,value at effective dose,Breast cancer cells,10.7 ± 0.6
same,effect on secretion of TNF-α,TNF-α,activation
same,IC50,B-Lymphocyte cells,10 µM
same,effective dose,B-Lymphocyte cells,20 µM
same,percentage of control at IC50 dose,B-Lymphocyte cells,55%
same,percentage of control at effective dose,B-Lymphocyte cells,21%
same,value at effective dose,B-Lymphocyte cells,2.7 ± 1.5
same,plasma miRNA-7a,plasma miRNAs; [2],168.0 ± 1.41
same,plasma miRNA-15a,plasma miRNAs; [2],179.0 ± 1.41
same,plasma miRNA-20a,plasma miRNAs; [2],168.00 ± 2.24
same,plasma miRNA-21,plasma miRNAs; [2],143.0 ± 2.83
same,plasma miRNA-29a,plasma miRNAs; [2],142.0 ± 2.83
same,plasma miRNA-92a,plasma miRNAs; [2],153.5 ± 2.12
same,plasma miRNA-200,plasma miRNAs; [2],146.0 ± 1.41
same,plasma miRNA-206,plasma miRNAs; [2],150 ± 2.83
same,"Circulating miRNA-7a, miRNA-15a, miRNA-20a, miRNA-21, miRNA-29a, miRNA-92a, miRNA-200, miRNA-206",plasma miRNAs; compared to baseline in hypercholesterolemic subjects,up-regulated
